In brackets after ≈: the same amount, converted by molar mass.
Key:
Cathepsin K = biological target: T1, Cathepsin K (Homo sapiens, UniProt P43235); assay: Inhibition of recombinant human cathepsin K by fluorescence assay
T1 sequence (P43235 whole entry): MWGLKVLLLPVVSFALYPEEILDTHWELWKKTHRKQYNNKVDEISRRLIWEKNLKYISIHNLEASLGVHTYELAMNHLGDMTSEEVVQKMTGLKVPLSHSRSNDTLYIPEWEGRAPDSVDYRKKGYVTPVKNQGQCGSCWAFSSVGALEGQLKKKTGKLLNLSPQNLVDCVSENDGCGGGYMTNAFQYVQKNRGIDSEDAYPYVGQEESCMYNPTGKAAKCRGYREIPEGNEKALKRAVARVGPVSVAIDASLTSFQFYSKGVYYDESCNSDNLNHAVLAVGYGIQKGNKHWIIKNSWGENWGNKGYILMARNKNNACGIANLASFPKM

[1] = Solubility in fasted state-simulated intestinal fluid at pH 6.8; assay type: physicochemical
[2] = Permeability in MDCK cell line; assay type: ADME, cell-based, Canis lupus familiaris; settings: dog
[3] = Clearance in Han Wistar rat; assay type: ADME, organism-based; settings: in vivo
[4] = Oral bioavailability in Han Wistar rat; assay type: ADME, organism-based; settings: in vivo
[5] = Half life in Han Wistar rat iv; assay type: ADME, organism-based; settings: in vivo
[6] = Volume of distribution in Han Wistar rat; assay type: ADME, organism-based; settings: in vivo, read-out: Vss

Structure (SMILES) | IC50 (Cathepsin K) | solubility [1] | Papp [2] | clearance [3] | bioavailability [4] | half-life [5] | Vd [6]
CCCC[C@H](NC(=O)O[C@@H]1C(=O)N(C(=O)c2cc3ccccc3s2)CC1(C)C)C(=O)C(=O)N[C@H](C)c1ccccc1 | 2.8 nM |  |  |  |  |  | 
CCCC[C@H](NC(=O)O[C@@H]1C(=O)N(C(=O)c2cccnc2)CC1(C)C)C(=O)C(=O)N[C@H](C)c1ccccc1 | 14 nM | 85 µg/mL (≈ 163 µM) | 21 ×10⁻⁶ cm/s | 34 mL/min/kg | 45% | 1.57 h | 0.55 L/kg
CCCC[C@H](NC(=O)O[C@@H]1C(=O)N(S(=O)(=O)Cc2ccccc2)CC1(C)C)C(=O)C(=O)N[C@H](C)c1ccccc1 | 17 nM |  |  |  |  |  | 
CCCC[C@H](NC(=O)O[C@@H]1C(=O)N(Cc2ccccc2)CC1(C)C)C(=O)C(=O)N[C@H](C)c1ccccc1 | 21 nM |  |  |  |  |  | 
CCCC[C@H](NC(=O)O[C@@H]1C(=O)N(C(=O)Cc2ccccc2)CC1(C)C)C(=O)C(=O)N[C@H](C)c1ccccc1 | 3 nM | 68 µg/mL (≈ 127 µM) | 41 ×10⁻⁶ cm/s | 26 mL/min/kg | 29% | 1.05 h | 1.5 L/kg
CCCC[C@H](NC(=O)O[C@@H]1C(=O)N(C(=O)Oc2ccc3ccccc3c2)CC1(C)C)C(=O)C(=O)N[C@H](C)c1ccccc1 | 58 nM |  |  |  |  |  | 
CCCC[C@H](NC(=O)O[C@@H]1C(=O)N(C(=O)Oc2ccc(-c3ccccc3)cc2)CC1(C)C)C(=O)C(=O)N[C@H](C)c1ccccc1 | 5 nM |  |  |  |  |  | 
CCCC[C@H](NC(=O)O[C@@H]1C(=O)N(C(=O)Nc2ccc(C(F)(F)F)cc2)CC1(C)C)C(=O)C(=O)Nc1cc[nH]n1 | 0.42 nM | 140 µg/mL (≈ 247 µM) | 1.8 ×10⁻⁶ cm/s | 77 mL/min/kg | 26% | 1.25 h | 2.6 L/kg
CCCC[C@H](NC(=O)O[C@@H]1C(=O)N(C(=O)c2ccc3ccccc3c2)CC1(C)C)C(=O)C(=O)N[C@H](C)c1ccccc1 | 1.6 nM |  |  |  |  |  | 
CCCC[C@H](NC(=O)O[C@@H]1C(=O)N(C(=O)c2ccccc2)CC1(C)C)C(=O)C(=O)N[C@H](C)c1ccccc1 | 65 nM |  |  |  |  |  | 
CCCC[C@H](NC(=O)O[C@@H]1C(=O)N(C(=O)N2CCOCC2)CC1(C)C)C(=O)C(=O)N[C@H](C)c1ccccc1 | 16 nM |  |  |  |  |  | 
CCCC[C@H](NC(=O)O[C@@H]1C(=O)N(C(=O)Nc2ccccc2)CC1(C)C)C(=O)C(=O)N[C@H](C)c1ccccc1 | 4.3 nM |  |  |  |  |  | 
CCCC[C@H](NC(=O)O[C@@H]1C(=O)N(C(=O)c2nc3ccccc3s2)CC1(C)C)C(=O)C(=O)Nc1ccn[nH]1 | 0.81 nM | 160 µg/mL (≈ 296 µM) | 25 ×10⁻⁶ cm/s | 65 mL/min/kg | 14% | 3 h | 2.2 L/kg
CCCC[C@H](NC(=O)O[C@@H]1C(=O)N(C(=O)Oc2ccccc2)CC1(C)C)C(=O)C(=O)N[C@H](C)c1ccccc1 | 29 nM |  |  |  |  |  | 
CCCC[C@H](NC(=O)O[C@@H]1C(=O)N(C(=O)Nc2ccc(C(F)(F)F)cc2)CC1(C)C)C(=O)C(=O)N[C@H](C)c1ccccc1 | 2.1 nM |  |  |  |  |  | 
CCCC[C@H](NC(=O)O[C@@H]1C(=O)N(C(=O)NCCc2ccccc2)CC1(C)C)C(=O)C(=O)N[C@H](C)c1ccccc1 | 6.6 nM |  |  |  |  |  | 
CCCC[C@H](NC(=O)O[C@@H]1C(=O)N(C(=O)c2ccc(-c3ccccc3)cc2)CC1(C)C)C(=O)C(=O)N[C@H](C)c1ccccc1 | 6.9 nM |  |  |  |  |  | 
CCCC[C@H](NC(=O)O[C@@H]1C(=O)N(C(=O)Nc2c(C)noc2C)CC1(C)C)C(=O)C(=O)N[C@H](C)c1ccccc1 | 15 nM | 320 µg/mL (≈ 576 µM) | 1.2 ×10⁻⁶ cm/s | 83 mL/min/kg | 8.8% | 0.583 h | 1.4 L/kg
CCCC[C@H](NC(=O)O[C@@H]1C(=O)N(C(=O)CCCc2ccccc2)CC1(C)C)C(=O)C(=O)N[C@H](C)c1ccccc1 | 27 nM |  |  |  |  |  | 
CCCC[C@H](NC(=O)O[C@@H]1C(=O)N(C(=O)NCc2ccccc2)CC1(C)C)C(=O)C(=O)N[C@H](C)c1ccccc1 | 3.8 nM | 53 µg/mL (≈ 96.2 µM) | 21 ×10⁻⁶ cm/s | 32 mL/min/kg | 21% | 1.02 h | 1.4 L/kg
CCCC[C@H](NC(=O)O[C@@H]1C(=O)N(C(=O)c2nnc(C(F)(F)F)s2)CC1(C)C)C(=O)C(=O)Nc1cc[nH]n1 | 1 nM |  | 12 ×10⁻⁶ cm/s | 79 mL/min/kg | 13% | 1.35 h | 3.3 L/kg
CCCC[C@H](NC(=O)O[C@@H]1C(=O)N(C(=O)OCc2ccccc2)CC1(C)C)C(=O)C(=O)N[C@H](C)c1ccccc1 | 24 nM |  |  |  |  |  | 
CCCC[C@H](NC(=O)O[C@@H]1C(=O)N(C(=O)c2ccno2)CC1(C)C)C(=O)C(=O)N[C@H](C)c1ccccc1 | 8.9 nM | 68 µg/mL (≈ 133 µM) | 48 ×10⁻⁶ cm/s | 18 mL/min/kg | 8.6% | 0.6 h | 0.5 L/kg
CCCC[C@H](NC(=O)O[C@@H]1C(=O)N(C(=O)OCCc2ccccc2)CC1(C)C)C(=O)C(=O)N[C@H](C)c1ccccc1 | 32 nM |  |  |  |  |  | 
CCCC[C@H](NC(=O)O[C@@H]1C(=O)N(C(=O)c2ccc3[nH]ccc3c2)CC1(C)C)C(=O)C(=O)N[C@H](C)c1ccccc1 | 1.7 nM |  |  |  |  |  | 
CCCC[C@H](NC(=O)O[C@@H]1C(=O)N(C(=O)OCc2ccc(-c3ccccc3)cc2)CC1(C)C)C(=O)C(=O)N[C@H](C)c1ccccc1 | 2.1 nM |  |  |  |  |  | 
CCCC[C@H](NC(=O)O[C@@H]1C(=O)N(S(=O)(=O)c2ccccc2)CC1(C)C)C(=O)C(=O)N[C@H](C)c1ccccc1 | 8.3 nM |  |  | 27 mL/min/kg | 25% | 2.5 h | 2.1 L/kg

Reference: ChEMBL document CHEMBL1146061, “Novel, potent P2-P3 pyrrolidine derivatives of ketoamide-based cathepsin K inhibitors” (Bioorg Med Chem Lett, 2006)
